Square brackets hold non-standard residues; d marks the D form. Ends that are not written are not given here. Peptide text beside a SMILES is read from it. AllylGly = C=CC[C@H](N)C(=O)O; Nle = CCCC[C@H](N)C(=O)O; Abu = CC[C@H](N)C(=O)O
What was measured:
Type in all cases: cell-based, human
[1] = test system: HUVEC; experiment: HUVEC tube formation assay on Matrigel; settings: for Tube formation Inhibition (100 uM): 100 uM peptide; for Activity in Tube formation: Yes/No summary; for inhibition of tube formation: concentration not given
Method: The compounds also were tested for their ability to inhibit tube formation, a process critical in angiogenesis. Endothelial cells spontaneously form a network of tubes when plated on extracts of extracellular matrix. This in vitro assay combines aspects of adhesion and migration and it is routinely used in angiogenesis research (Oliveira-Ferrer et al., 2008). The ability to inhibit tube formation is a comprehensive assessment of the anti-angiogenic potential. The protocol was described by Arnaoutova et al. (2009) and it consists of plating HUVEC on top of basement membrane extract and after incubation at 37° C. the cells naturally rearrange themselves in a network of tubes. Thus, 50 μL/well of Matrigel (BD Biosciences, San Jose, Calif.) was plated in a cold 96 well plate and incubated at 37° C. for 30 min for polymerization. 15,000 cells/well were added to the top of the gel and incubated in complete media in the presence or absence of peptide for 19 hours. Images were captured using the CCD Sensicam mounted on a Nikon microscope (Eclipse T-100). Assays were performed in at least two independent replicates and each replicate was performed using three experimental replicates and one image of a randomly chosen field was acquired per well.

[2] = test system: HUVEC; experiment: HUVEC migration assay (RT-CIM); settings: for Migration Inhibition (50 uM): 50 uM peptide; for Activity in Migration: Yes/No summary, active = inhibitory potential greater than 30%; for Migration Inhibition (5 uM): 5 uM peptide
Method: The inhibitory potential of the peptides was measured using a real time migration assay system based on electrical impedance (RT-CIM, ACEA Biosciences, CA). CIM 16 well plates (Roche, 05665817001) are composed of a top and bottom chamber separated by a microporous (8 μm) polycarbonate membrane. The membrane was coated with fibronectin (20 μg/mL), and 45,000 cells/well in serum free media with or without peptides were added to the top compartment. Media with chemoattractant (i.e., fully supplemented EBM-2) was added to the bottom compartment of the chamber and the plate was incubated at 37° C. for 20 hours. The sensors integrated on the bottom side of the membrane monitor and continuously record changes in impedance as the cells move through the membrane. The RT-CIM technology allows for easy quantification of cell migration by monitoring the cell index derived from the measured impedances. Assays were performed in at least two independent replicates and each replicate was performed using two experimental duplicates.

[3] = test system: HUVEC; settings: for Activity in Proliferation / Proliferation Inhibition (IC50 in uM) / inhibition of proliferation: HUVEC; for Activity in Proliferation: Yes/No summary; for Proliferation Inhibition (IC50 in uM): summary tables 2-4, 6, 7
Method: Several assays were used to test the peptides discussed in the Examples herein. A colorimetric based proliferation assay using WST-1 (Roche, 11644807001) proliferation reagent was carried out using HUVEC cells. 2000 cells/well were plated in 96-well plates and allowed to adhere overnight. On the following day, the media was exchanged with fully supplemented media containing peptides or equivalent DMSO vehicle for the controls. Three days later the media containing the peptides was replaced with serum-free EBM-2 media containing WST-1 reagent and the plates were incubated for four hours as per the manufacturer's recommendations. Changes in color, due to the formazan dye resulted from the cleavage of the tetrazolium salt WST-1 by the mitochondrial succinate-tetrazolium reductase, were read on a Victor V fluorescence plate reader (Perkin Elmer, MA) by measuring the absorbance at 450 nm Dose response curves of percent live cells (in comparison to untreated cells but incubated in complete media with 0.2% DMSO) were created. Assays were performed in at least two independent replicates and each replicate was performed using three experimental triplicates.

[4] = test system: HUVEC; settings: HUVEC; for Adhesion Inhibition (100 uM): 100 uM peptide; for Activity in Adhesion: Yes/No summary, active = inhibitory potential greater than 30%
Method: Similar to the migration assays, the inhibition activity of the peptide in cellular adhesion was assessed using the RT-CIM technology. In this case, 25,000 cells/well were plated in 16 wells E-plates (Roche, Basel Switzerland) in the presence or absence of the peptide. The adhesion was monitored over time (3 hours) by measuring changes in the electrical impedance, which is a direct measure of the cells adhering on the electrodes. […] Assays were performed in at least two independent replicates and each replicate was performed using two experimental duplicates.

Compound | Tube formation Inhibition (100 uM) [1] | Activity in Tube formation [1] | inhibition of tube formation (FIG. 20) ([1]; high dose, 100 nM) | Migration Inhibition (50 uM) [2] | Activity in Migration [2] | IC50 [3] [µM] | Activity in Proliferation [3] | Adhesion Inhibition (100 uM) [4] [%] | Activity in Adhesion [4] | inhibition of migration ([2]; concentration not given) | Proliferation Inhibition (IC50 in uM) [3] | inhibition of adhesion ([4]; concentration not given) | Migration Inhibition (5 uM) [2] [%] | inhibition of proliferation [3] | inhibition of tube formation [1] | migration inhibition ([2]; concentration not given) [%] | adhesion inhibition (FIG. 16) ([4]; concentration not given)
CC[C@H](NC(=O)[C@H](Cc1ccccc1)NC(=O)[C@H](CCSC)NC(=O)[C@@H](N)Cc1ccccc1)C(=O)N[C@@H](CC(N)=O)C(=O)N[C@H](C(=O)N[C@@H](CC(N)=O)C(=O)N[C@@H](CC(N)=O)C(=O)N[C@H](C(=O)N[C@@H](CC)C(=O)N[C@@H](CC(N)=O)C(=O)N[C@@H](Cc1ccccc1)C(=O)O)C(C)C)[C@@H](C)CC [SP2010, FMFAbuNINNVAbuNF] (H-FMF[Abu]NINNV[Abu]NF-OH; N-terminus and C-terminus assumed) | complete inhibition of tube formation | Yes | displayed activity in inhibiting tube formation | 13% | No | 155 | No | 82.69 | Yes |  |  |  |  |  |  |  | 
CCCC[C@H](NC(=O)[C@H](Cc1ccccc1)NC(=O)[C@@H]1CCCN1C(=O)[C@H](CCCC)NC(=O)[C@@H](NC(=O)[C@H](CO)NC(=O)[C@H](Cc1ccccc1)NC(=O)[C@H](CCCNC(=N)N)NC(=O)[C@H](CCCNC(=N)N)NC(=O)[C@@H](N)CC(C)C)[C@@H](C)O)C(=O)N[C@@H](Cc1ccccc1)C(=O)O [SP2014, LRRFSTNlePFNleF-OH] (H-LRRFST[Nle]PF[Nle]F-OH; N-terminus assumed) | Inactive | No |  | Inactive | No | > 100 | No | 2.9 | No | absence of activity | Inactive | absence of activity |  |  |  |  | 
C=CC[C@H](NC(=O)[C@H](Cc1ccccc1)NC(=O)[C@H](CCSC)NC(=O)[C@H](Cc1ccccc1)NC(=O)[C@@H]1CCCN1C(=O)[C@H](CCSC)NC(=O)[C@@H](NC(=O)[C@H](CO)NC(=O)[C@H](Cc1ccccc1)NC(=O)[C@H](CCCNC(=N)N)NC(=O)[C@H](CCCNC(=N)N)NC(=O)[C@@H](N)CC(C)C)[C@@H](C)O)C(=O)N[C@@H](CC(N)=O)C(=O)N[C@H](C(=O)N[C@@H](CC(N)=O)C(=O)N[C@@H](CC(N)=O)C(=O)N[C@H](C(=O)N[C@@H](CC=C)C(=O)N[C@@H](CC(N)=O)C(=O)N[C@@H](Cc1ccccc1)C(N)=O)C(C)C)[C@@H](C)CC [SP2026, LRRFSTMPFMF(AllyGly)NINNV(AllyGly)NF] (H-LRRFSTMPFMF[AllylGly]NINNV[AllylGly]NF-NH2; N-terminus assumed) | Complete | Yes |  |  | Yes | 8.23 | Yes | 96.61 | Yes |  |  |  | 11.43 | not affected |  |  | 
CC[C@H](NC(=O)[C@H](Cc1ccccc1)NC(=O)[C@H](CCSC)NC(=O)[C@H](Cc1ccccc1)NC(=O)[C@@H]1CCCN1C(=O)[C@H](CCSC)NC(=O)[C@@H](NC(=O)[C@H](CO)NC(=O)[C@H](Cc1ccccc1)NC(=O)[C@H](CCCNC(=N)N)NC(=O)[C@H](CCCNC(=N)N)NC(=O)[C@@H](N)CC(C)C)[C@@H](C)O)C(=O)N[C@@H](CC(N)=O)C(=O)N[C@H](C(=O)N[C@@H](CC(N)=O)C(=O)N[C@@H](CC(N)=O)C(N)=O)[C@@H](C)CC [SP2028, LRRFSTMPFMFAbuNINN] (H-LRRFSTMPFMF[Abu]NINN-NH2; N-terminus assumed) | Complete | Yes |  | 48.87% | Yes |  | Yes | 96.8 | Yes |  |  |  |  |  | Inhibition of tube formation |  | 
FTNINNVTN-NH2 [SP2031, FTNINNVTN] | Active | Yes |  | 10.21% | Yes |  | Yes | 85 | Yes |  |  |  |  | restored activity |  | > 50 | > 80
LNRFSTMPF [SP2013, LNRFSTMPF] | Inactive | No |  | Inactive | No | > 100 | No | 0.3 | No | absence of activity | Inactive | absence of activity |  |  |  |  | 
LRRFSTMP-NH2 [SP2008] | Inactive | No |  | Inactive | No |  | No | −0.1 | No | absence of activity | Inactive | absence of activity |  |  |  |  | 
LRRFSTMPFMF [SP2004, LRRFSTMPFMF] | Inactive | No |  |  | No | > 100 | No |  | No |  | Inactive |  |  | inactive |  |  | 
LRRFSTMPFMFANINNVANF-NH2 [SP2023] | Complete | Yes |  |  | Yes |  | Yes | 96.29 | Yes |  |  |  | 31.18 |  |  |  | 
LRRFSTMPFMFININN-NH2 [SP2033, LRRFSTMPFMFININN] | Complete | Yes |  | 42.01% | Yes |  | Yes | 94 | Yes |  |  |  |  | potent activity in inhibiting proliferation | Inhibition of tube formation |  | 
